The record followed here is ChEMBL document CHEMBL4725254, “Irregularly Bridged Epipolythiodioxopiperazines and Related Analogues: Sources, Structures, and Biological Activities” (J Nat Prod, 2020).

By IC50 is commonly meant the concentration that gives 50% inhibition. Low values mean higher potency, high ones lower potency. As usually defined, the MIC is the smallest concentration in the dilution series that meets the test's criterion for growth inhibition. A high value points to weaker potency. By GI50 is commonly meant the concentration at which growth is held to half of that of the control. High values mean lower sensitivity of the cells, low ones greater sensitivity of the cells.

The subject of one assay is LNCaP. Description: Antitumor activity against human LNCaP cells. The format is functional, cell-based.
Another assay deals with CWR22R. The assay can be described thus: Antitumor activity against human CWR22R cells. The format is functional, cell-based. As to conditions: 22Rv1.
Another assay deals with PC-3. Description: Antitumor activity against human PC-3 cells. The format is functional, cell-based.
Assay [1] has as its system Human immunodeficiency virus. Description: Antiviral activity against HIV. The format is functional, organism-based. As to conditions: Human immunodeficiency virus 1.
Assay [2] in a line: […] activity against Eupenicillium abidjanum IFO 8939. The format is functional. As to conditions: Penicillium abidjanum.
The next assay has as its system Jurkat. The assay can be described thus: Cytotoxicity against human Jurkat cells after 72 hrs by microtitre plate assay. The format is functional, cell-based.
Assay [3] can be described thus: Cytotoxicity against mouse NS-1 cells after 72 hrs by microtitre plate assay. The format is functional, cell-based. To be noted: NS1, 72 h.
The subject of the next assay is HepG2. The assay can be described thus: Growth inhibition of human HepG2 cells. The format is functional.

Values after ≈ are worked out from the molar mass of the structure shown.

On to `COc1ccc([C@H]2SS[C@@]34C[C@]5(O)[C@H](Cl)C=C[C@@H](O)[C@@H]5ON3C(=O)[C@@H]2N(C)C4=O)c(O)c1OC`, for which the IC50 is 1.8 µM in the assay with LNCaP, 0.51 µM in the assay on CWR22R and 5.1 µM in the assay on PC-3.

Regarding `CS[C@@]12CC3=CC=C[C@H](O)[C@H]3N1C(=O)[C@@]13C[C@H]4C(=O)C[C@@H](SS1)[C@H](O)[C@H]4N3C2=O`, in assay [1], the IC50 is 16 µM.

`CS[C@@]12C[C@H]3C(=O)CC[C@H](O)[C@H]3N1C(=O)[C@@]13C[C@@H]4[C@@H]([C@@H](O)C=C[C@@H]4S1)N3C2=O` showed an IC50 in assay [1] of 10 µM. `CS[C@@]12CC3=CC=C[C@H](O)[C@H]3N1C(=O)[C@@]13C[C@H]4C(=O)C[C@@H](S1)[C@H](O)[C@H]4N3C2=O` gave a 50% inhibitory concentration (IC50) in assay [1] of 10 µM. This lies in the double-digit micromolar range. The compound `COc1ccc([C@H]2SS[C@@]34C[C@]56O[C@H]5C=C[C@@H](O)[C@@H]6ON3C(=O)[C@@H]2N(C)C4=O)c(O)c1OC` returned a minimum inhibitory concentration (MIC) in assay [2] of 10 µg/mL (≈ 20.2 µM). In assay [1], `CS[C@@]12CC3=CC=C[C@H](O)[C@H]3N1C(=O)[C@]13C[C@H]4C(=O)[C@H](C[C@H](O)[C@H]4N1C2=O)S3` had an IC50 of 10 µM. Still for that read-out and setting: the value for `CS[C@@]12CC3=CC=C[C@H](O)[C@H]3N1C(=O)[C@@]13C[C@@H]4[C@@H]([C@@H](O)[C@@H](C[C@@H]4O)S1)N3C2=O` was 10 µM.

Consider `COc1ccc2cc(NC(=O)[C@@]34C[C@]5(O)[C@@H](C=C[C@@H](O)[C@@H]5ON3)SS4)c(=O)oc2c1OC`, for which the half-maximal inhibitory concentration (IC50) in the assay with Jurkat was determined as 1.3 µM; in assay [3], 10 µM. Compound `COc1ccc([C@H]2SS[C@@]34C[C@]5(O)[C@H](Cl)C=C[C@@H](O)[C@@H]5ON3C(=O)[C@@H]2NC4=O)c(O)c1OC` came in with an IC50 with Jurkat of 5.1 µM. This lies in the single-digit micromolar range.

For the compound `CS[C@@]12C[C@H]3C(=O)CC[C@H](O)[C@H]3N1C(=O)[C@@]13C[C@@H]4[C@@H]([C@@H](O)[C@@H](C[C@@H]4O)S1)N3C2=O`, the IC50 in assay [1] turned out to be 10 µM.

In the assay on HepG2, `CSC1c2ccccc2O[C@]12C(=O)N1O[C@]3(CCC=CC3=O)[C@@H](O)C1(SC)C(=O)N2C` (stereo not given in full) yielded a GI50 of 8 µM. Regarding `CS[C@@]12C[C@H]3C(=O)CC[C@H](O)[C@H]3N1C(=O)[C@@]13C[C@H]4C(=O)C[C@@H](S1)[C@H](O)[C@H]4N3C2=O` [EPICOCCIN O], in assay [1], half-maximal inhibition (IC50) required 10 µM.
